Test results from patent US10865406B2, “ALS inhibitor herbicide tolerant Beta vulgaris mutants” (priority 2010, dated 2020).

How the values were obtained:
[1] = test system: wild type sugar beet plants; experiment: Herbicide treatment of regenerated plants from wild type cell cultures (greenhouse); format: in vivo, Beta vulgaris; conditions: lowest doses tested (range 7-70 g a.i./ha foramsulfuron, 1-10 g a.i./ha iodosulfuron-methyl-sodium, mixtures 7:1)
Excerpt: (§1) Within 4-12 weeks the shoots formed roots and then they were transferred into sterile plant containers filled with wet, sterilized perlite, watered with half strength MS inorganic ingredients. Alternatively the plantlets were transferred directly from the agar solidified medium in a perlite containing soil mixture in the greenhouse. During the first 10-15 days after transfer into soil containing substrate the plants were kept in an environment with high air humidity. During and after they were weaned to normal greenhouse air humidity regimes the plants were kept in the greenhouse under artificial light (12 h) at 20+−3° C./15+−2° C. day/night temperatures.
(§2) 3-5 weeks later, the regenerated plants from the above obtained foramsulfuron tolerant cell culture (SB574TL) as well as from the wild type cell cultures were treated with foramsulfuron, iodosulfuron-methyl-sodium (CAS RN […]) and a mixture of both active ingredients. The herbicide doses tested were equivalent to 7-70 g a.i./ha for foramsulfuron and 1-10 g a.i./ha for iodosulfuron-methyl-sodium.

[2] = test system: regenerated plants from SB574TL cell culture; experiment: Herbicide treatment of regenerated plants from the foramsulfuron tolerant cell culture (greenhouse); format: in vivo, Beta vulgaris; conditions: highest doses tested (range 7-70 g a.i./ha foramsulfuron, 1-10 g a.i./ha iodosulfuron-methyl-sodium, mixtures 7:1)
Excerpt: as §1, §2

[3] = test system: sugar beet calli (diploid genotype 7T9044); experiment: cells; format: cell-based, Beta vulgaris
Description: Sugar beet cell cultures were initiated from seedlings of a diploid sugar beet genotype 7T9044 (as, for example, described by Alexander Dovzhenko, PhD Thesis, Title: “Towards plastid transformation in rapeseed (Brassica napus L.) and sugarbeet (Beta vulgaris L.)”, Ludwig-Maximilians-Universität München, Germany, 2001). Sugar beet seeds were immersed for 60 seconds in 70% ethanol, then rinsed twice in sterile water with 0.01% detergent and then incubated for 1-4 hours in 1% NaOCl bleach. Thereafter the seeds were washed 3 times with sterile H2O and the seeds were stored in sterile water overnight at 4° C. The embryos were then isolated using forceps and scalpel.
The freshly prepared embryos were immersed in 0.5% NaOCl for 30 min and then washed 3 times in sterile water. After the last washing step they were placed on hormone free MS agar medium (Murashige and Skoog (1962), Physiol. Plantarum, 15, 473-497). Those embryos which developed into sterile seedlings were used for the initiation of regenerable sugar beet cell cultures.
Cotyledons as well as hypocotyls were cut into 2-5 mm long segments and then cultivated on agar (0.8%) solidified MS medium containing either 1 mg/l Benzylaminopurine (BAP) or 0.25 mg/l Thidiazuron (TDZ). 4 weeks later the developing shoot cultures were transferred onto fresh agar medium of the same composition and then sub-cultured in monthly intervals. […]

[4] = test system: Beta vulgaris wild-type and W574L-mutant (SB574TL) ALS; experiment: ALS enzyme activity measurements, E. coli expressed enzyme; format: biochemical; conditions: crude protein extract, from pI50-values
Description: The coding sequence of a Beta vulgaris wild-type and a mutant B. vulgaris plant is cloned into, for example, Novagen pET-32a(+) vectors and the vectors are transformed into, for example, Escherichia coli AD494 according to the instructions of the manufacturer. Bacteria are preferably grown at 37° C. in medium under selection pressure such as in LB-medium containing 100 mg/l carbenicillin and 25 mg/l kanamycin, are induced with, for example, 1 mM isopropyl-β-D-thiogalactopyranoside at an OD600 of preferably about 0.6, cultivated for about 16 hours at preferably 18° C. and harvested by centrifugation. Bacterial pellets are resuspended in 100 mM sodium phosphate buffer pH 7.0 containing 0.1 mM thiamine-pyrophosphate, 1 mM MgCl2, and 1 μM FAD at a concentration of 1 gram wet weight per 25 ml of buffer and disrupted by sonification. The crude protein extract obtained after centrifugation is used for ALS activity measurements.
ALS assays are then carried out in, for example, 96-well microtiter plates using a modification of the procedure described by Ray (1984), Plant Physiol., 75, 827-831. The reaction mixture contains preferably 20 mM potassium phosphate buffer pH 7.0, […], 0.45 mM thiamine-pyrophosphate, 0.45 mM MgCl2, 9 μM FAD, ALS enzyme and various concentrations of ALS inhibitors in a final volume of about 90 μl. […]

[5] = test system: SB574TL sugar beet cell colony; experiment: Growth of selected mutant cell colony (clone SB574TL) on foramsulfuron medium; format: cell-based, Beta vulgaris; conditions: 3×10^−7 M and even 3×10^−6 M foramsulfuron
Excerpt: When this callus type was exposed to 10^−9 M of the sulfonylurea foramsulfuron (CAS RN 173159-57-4), the cells survived, but produced less than 50% of the biomass of their siblings on medium devoid of the inhibitor. On medium containing 3×10^−8 M foramsulfuron no growth was detectable. For large scale mutant selection experiments 10^−7 M foramsulfuron was chosen. Surviving and growing cell colonies were numbered and transferred after 4-6 weeks onto fresh medium containing 3×10^−7 M of the inhibitor. One of these cell colonies was able to grow not only at this concentration of the inhibitor but even in presence of 3×10^−6 M of foramsulfuron. From this clone (SB574TL), shoots were regenerated in presence of the ALS-inhibitor herbicide and then the shoots were transferred to MS medium containing 0.05 mg/l Naphthalene acetic acid (NAA).
When this callus type was exposed to 10^−9 M of the ALS inhibitor herbicide foramsulfuron (belonging to the sulfonylurea subclass, see above), the cells survived, but produced less than 50% of the biomass of their siblings on medium devoid of the inhibitor. On medium containing 3×10^−8 M foramsulfuron no growth was detectable. For large scale mutant selection experiments, 10^−7 M foramsulfuron was chosen. Surviving and growing cell colonies were numbered and transferred after 4-6 weeks onto fresh medium containing 3×10^−7 M of the inhibitor. […]

[6] = test system: ALS in leaf extracts of wild type sugar beets and SB574TL; experiment: ALS enzyme activity measurements from plant leaf extracts; format: biochemical, Beta vulgaris
Excerpt: When plants are used, ALS activity is preferably determined in cell extracts or leaf extracts of wild type and B. vulgaris cell extracts or leaf extracts of the obtained mutant in the presence of various concentrations of ALS-inhibitor herbicides, preferably sulfonylurea herbicides or sulfonylamino-carbonyltriazolinone herbicides, more preferably in the presence of various concentrations of the ALS inhibitor herbicide “foramsulfuron”. ALS is thus preferably extracted from sugar beet leaves or sugar beet tissue cultures as described by Ray (1984) in Plant Physiol 75:827-831.
ALS was extracted from sugar beet leaves or sugar beet tissue cultures as described by Ray (1984), Plant Physiol 75:827-831.
ALS activity was determined in leaf extracts of wild type and sugar beets and leaf extracts of the obtained SB574TL in presence of various concentrations of foramsulfuron as described in Example 4.
In total, the mutant enzyme was at least 2000 times less sensitive against the ALS inhibitor foramsulfuron than the wild type enzyme.

| SMILES | effect on wild type plants [1] | tolerance of regenerated plants to herbicide [2] | cell survival of callus ([3]; 10^−9 M foramsulfuron in medium) | viability at 0.001 µM ([3]; Beta vulgaris, read-out: biomass relative to siblings on medium devoid of the inhibitor) | sensitivity of mutant enzyme relative to wild type enzyme (times less sensitive) [4] | growth of mutant cell colony [5] | sensitivity of mutant enzyme relative to wild type enzyme (times less sensitive) [6] |
| --- | --- | --- | --- | --- | --- | --- | --- |
| COC(=O)c1ccc(I)cc1S(=O)(=O)[N-]C(=O)Nc1nc(C)nc(OC)n1.[Na+] [iodosulfuron-methyl-sodium] | killed | tolerated even the highest herbicide doses |  |  |  |  |  |
| COc1cc(OC)nc(NC(=O)NS(=O)(=O)c2cc(NC=O)ccc2C(=O)N(C)C)n1 [foramsulfuron] | killed | tolerated even the highest herbicide doses | survived | < 50% | at least 2000 times | able to grow | at least 2000 times |
